From ChEMBL document CHEMBL4007390, “Design, synthesis and biological evaluation of indolin-2-one-based derivatives as potent, selective and efficacious inhibitors of FMS-like tyrosine kinase3 (FLT3)” (Eur J Med Chem, 2017)
Activity calls are given as the source filed them. The calls are words filed in the database; no cut-off is given here.

System: MV4-11
Assay: Antitumor activity against human MV4-11 cells xenografted in Harlan nude mouse assessed as tumor growth inhibition administered ig qd for 20 days
Type: functional
Conditions: MV4-11, po, 480 h, read-out: MED

Row | SMILES | minimal effective dose [mg/kg/day]
1 | CCN(CC)CCNC(=O)c1c(C)[nH]c(/C=C2\C(=O)Nc3ccc(F)cc32)c1C [SUNITINIB] | 10

System: not listed separately
Assay: Inhibition of human FLT3 ITD mutant
Conditions: not given

Row | SMILES | IC50 [nM]
2 | CCN(CC)CCNC(=O)c1c(C)[nH]c(/C=C2\C(=O)Nc3ccc(F)cc32)c1C [SUNITINIB] | 1.4

System: MV4-11
Assay: Antitumor activity against human MV4-11 cells xenografted in Harlan nude mouse assessed as tumor growth inhibition administered orally measured after 1 week
Type: functional, cell-based
Conditions: not given

Row | SMILES | TGI
3 | Cc1[nH]c(/C=C2\C(=O)Nc3ccc(F)cc32)c(C)c1NC(=O)C1CCNCC1 | inactive

System: not listed separately
Assay: Toxicity in Harlan nude mouse xenografted with human MV4-11 cells administered ig qd for 20 days
Conditions: in vivo, po

Row | SMILES | MTD at 480 h [mg/kg/day]
4 | CCN(CC)CCNC(=O)c1c(C)[nH]c(/C=C2\C(=O)Nc3ccc(F)cc32)c1C [SUNITINIB] | 80

System: MV4-11
Assay: Antitumor activity against human MV4-11 cells xenografted in Harlan nude mouse assessed as tumor growth inhibition at 10 mg/kg, ig qd for 20 days relative to control
Type: functional
Conditions: MV4-11, po, 480 h, read-out: TGI

Row | SMILES | inhibition in vivo at 10 mg/kg [%]
5 | CCN(CC)CCNC(=O)c1c(C)[nH]c(/C=C2\C(=O)Nc3ccc(F)cc32)c1C [SUNITINIB] | 81

System: MV4-11
Assay: Antiproliferative activity against human MV4-11 cells harboring FLT3 ITD mutant after 72 hrs by MTS assay
Type: functional, cell-based
Conditions: MV4-11, 72 h

Row | SMILES | IC50 [nM]
6 | CCCNCC(=O)Nc1c(C)[nH]c(/C=C2\C(=O)Nc3ccc(F)cc32)c1C | 67.8
7 | CCN(CC)CCC(=O)Nc1c(C)[nH]c(/C=C2\C(=O)Nc3ccc(F)cc32)c1C | 36.5
8 | Cc1[nH]c(/C=C2\C(=O)Nc3ccc(F)cc32)c(C)c1NC(=O)CCN1CCCC1 | 20
9 | Cc1[nH]c(/C=C2\C(=O)Nc3ccc(F)cc32)c(C)c1NC(=O)[C@@H]1CCCN1 | 41.4
10 | Cc1[nH]c(/C=C2\C(=O)Nc3ccc(F)cc32)c(C)c1NC(=O)CCN1CCNCC1 | 39.2
11 | Cc1[nH]c(/C=C2\C(=O)Nc3ccc(F)cc32)c(C)c1NC(=O)CCN1CCN(C)CC1 | 45.3
12 | Cc1[nH]c(/C=C2\C(=O)Nc3ccc(F)cc32)c(C)c1NC(=O)CCN1CCOCC1 | 60.7
13 | CCN(CC)CCNC(=O)c1c(C)[nH]c(/C=C2\C(=O)Nc3ccc(F)cc32)c1C [SUNITINIB] | 38.5
14 | CCNCC(=O)Nc1c(C)[nH]c(/C=C2\C(=O)Nc3ccc(F)cc32)c1C | 43.8
15 | CCCCNCCC(=O)Nc1c(C)[nH]c(/C=C2\C(=O)Nc3ccc(F)cc32)c1C | 73.4
16 | Cc1[nH]c(/C=C2\C(=O)Nc3ccc(F)cc32)c(C)c1NC(=O)CN1CCCC1 | 74.4
17 | Cc1[nH]c(/C=C2\C(=O)Nc3ccc(F)cc32)c(C)c1NC(=O)CNC1CCCCC1 | > 200
18 | Cc1[nH]c(/C=C2\C(=O)Nc3ccc(F)cc32)c(C)c1NC(=O)CNC(C)(C)C | 158
19 | CCNCCC(=O)Nc1c(C)[nH]c(/C=C2\C(=O)Nc3ccc(F)cc32)c1C | 25.7
20 | Cc1[nH]c(/C=C2\C(=O)Nc3ccc(F)cc32)c(C)c1NC(=O)C1CCCCN1 (stereo not drawn) | 35.6
21 | Cc1[nH]c(/C=C2\C(=O)Nc3ccc(F)cc32)c(C)c1NC(=O)C1CCNCC1 | 14.7
22 | CCN(CC)CC(=O)Nc1c(C)[nH]c(/C=C2\C(=O)Nc3ccc(F)cc32)c1C | > 200
23 | Cc1[nH]c(/C=C2\C(=O)Nc3ccc(F)cc32)c(C)c1NC(=O)CN(C)C | 47.5
24 | Cc1[nH]c(/C=C2\C(=O)Nc3ccc(F)cc32)c(C)c1NC(=O)CN1CCN(C)CC1 | 38.5
25 | Cc1[nH]c(/C=C2\C(=O)Nc3ccc(F)cc32)c(C)c1NC(=O)C1CCCNC1 (stereo not drawn) | 24.1
26 | Cc1[nH]c(/C=C2\C(=O)Nc3ccc(F)cc32)c(C)c1NC(=O)CCNC1CCCC1 | 55

Second part, the compound after the results:

Row | IC50 [nM] | SMILES
27 | 39.4 | CCCNCCC(=O)Nc1c(C)[nH]c(/C=C2\C(=O)Nc3ccc(F)cc32)c1C
28 | 30.3 | Cc1[nH]c(/C=C2\C(=O)Nc3ccc(F)cc32)c(C)c1NC(=O)CCNC(C)(C)C
29 | > 200 | CCCCNCC(=O)Nc1c(C)[nH]c(/C=C2\C(=O)Nc3ccc(F)cc32)c1C
30 | 89.9 | Cc1[nH]c(/C=C2\C(=O)Nc3ccc(F)cc32)c(C)c1NC(=O)CNC1CCCC1
31 | > 200 | CCCN(CCC)CC(=O)Nc1c(C)[nH]c(/C=C2\C(=O)Nc3ccc(F)cc32)c1C
32 | 27.1 | Cc1[nH]c(/C=C2\C(=O)Nc3ccc(F)cc32)c(C)c1NC(=O)CCN(C)C
33 | 17.1 | Cc1[nH]c(/C=C2\C(=O)Nc3ccc(F)cc32)c(C)c1NC(=O)CN1CCNCC1
34 | 119 | Cc1[nH]c(/C=C2\C(=O)Nc3ccc(F)cc32)c(C)c1NC(=O)CCNC1CCCCC1
35 | 33.7 | Cc1[nH]c(/C=C2\C(=O)Nc3ccc(F)cc32)c(C)c1NC(=O)CCN1CCCCC1
36 | 142 | CCCN(CCC)CCC(=O)Nc1c(C)[nH]c(/C=C2\C(=O)Nc3ccc(F)cc32)c1C
37 | > 200 | Cc1[nH]c(/C=C2\C(=O)Nc3ccc(F)cc32)c(C)c1NC(=O)CN1CCCCC1
38 | 66.1 | Cc1[nH]c(/C=C2\C(=O)Nc3ccc(F)cc32)c(C)c1NC(=O)CN1CCOCC1
